Laboratory results as given in patent publication US20230233569A1 (Revolution Medicines, Inc., priority 2020, published 2023).
Like-named read-outs stand apart in the source and are kept apart here.

Columns and labels:
[1] = test system: Capan-1 (K-Ras G12V); experiment: CellTiter-Glo cell viability assay, 5-day treatment; type: cell-based; conditions: Homo sapiens, CAPAN-1, 120 h, 5-day treatment; read-out: Capan-1 Cell Viability assay data (K-Ras G12V, IC50)
How it was run: (§1)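 Viability is read as luminescence on day 5 after direct compound addition to plated cells, following about 30 minutes' room-temperature equilibration. Each signal is scaled to mean DMSO as 100%.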

[2] = test system: NCI-H358 (K-Ras G12C); experiment: as above; type: cell-based; conditions: Homo sapiens, NCI-H358, 120 h, 5-day treatment; read-out: H358 Cell Viability assay data (K-Ras G12C, IC50)
How it was run: as §1

[3] = target: KRAS G12C (Homo sapiens, UniProt P01116+P62937, G12C); experiment: Disruption of BRAF RBD interaction with Ras (FRET / MOA assay, with Cyclophilin A); type: biochemical
Sequence of KRAS G12C (P01116 1-169 isoform P01116-2 G12C): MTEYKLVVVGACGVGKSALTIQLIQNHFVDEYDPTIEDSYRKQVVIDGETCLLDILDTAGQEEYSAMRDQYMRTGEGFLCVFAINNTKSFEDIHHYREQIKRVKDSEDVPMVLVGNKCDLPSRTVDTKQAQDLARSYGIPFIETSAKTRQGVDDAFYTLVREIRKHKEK
Sequence of KRAS G12C (P62937 whole entry): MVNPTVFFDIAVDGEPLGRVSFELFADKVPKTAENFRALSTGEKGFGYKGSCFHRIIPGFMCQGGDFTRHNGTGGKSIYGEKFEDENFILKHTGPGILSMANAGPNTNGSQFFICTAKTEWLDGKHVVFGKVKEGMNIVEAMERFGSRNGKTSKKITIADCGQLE
How it was run: (§2)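 Measured via TR-FRET after 3 h at 25 °C with compound (30 μM top, threefold serial steps, ten concentrations) plus K-Ras, Cyclophilin A and BRAF RBD, followed by 1.5 h with anti-His europium (10 nM) and anti-GST allophycocyanin (50 nM). Signal loss versus DMSO gave IC50.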

[4] = target: KRAS G12D (Homo sapiens, UniProt P01116+P62937, G12D); experiment: as above; type: biochemical
Sequence of KRAS G12D (P01116 1-169 isoform P01116-2 G12D limits assumed): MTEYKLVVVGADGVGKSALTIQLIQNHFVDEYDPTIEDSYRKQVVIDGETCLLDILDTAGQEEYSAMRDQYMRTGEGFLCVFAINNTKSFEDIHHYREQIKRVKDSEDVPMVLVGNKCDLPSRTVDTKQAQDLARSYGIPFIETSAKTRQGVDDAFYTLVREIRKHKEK
Sequence of KRAS G12D (P62937 whole entry): as the sequence (P62937 whole entry) above
How it was run: as §2

[5] = target: KRAS G12S (Homo sapiens, UniProt P01116+P62937, G12S); experiment: as above; type: biochemical
Sequence of KRAS G12S (P01116 1-169 isoform P01116-2 G12S limits assumed): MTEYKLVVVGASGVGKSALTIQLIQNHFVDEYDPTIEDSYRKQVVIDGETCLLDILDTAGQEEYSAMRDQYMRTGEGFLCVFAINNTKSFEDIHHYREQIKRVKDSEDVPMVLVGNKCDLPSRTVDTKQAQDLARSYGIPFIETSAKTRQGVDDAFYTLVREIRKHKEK
Sequence of KRAS G12S (P62937 whole entry): as the sequence (P62937 whole entry) above
How it was run: as §2

[6] = target: KRAS G12V (Homo sapiens, UniProt P01116+P62937, G12V); experiment: as above; type: biochemical
Sequence of KRAS G12V (P01116 1-169 isoform P01116-2 G12V limits assumed): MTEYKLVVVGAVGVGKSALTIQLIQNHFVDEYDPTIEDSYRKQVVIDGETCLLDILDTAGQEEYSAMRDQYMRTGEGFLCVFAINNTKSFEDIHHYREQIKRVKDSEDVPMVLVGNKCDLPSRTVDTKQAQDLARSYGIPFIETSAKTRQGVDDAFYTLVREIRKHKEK
Sequence of KRAS G12V (P62937 whole entry): as the sequence (P62937 whole entry) above
How it was run: as §2

[7] = target: KRAS G13C (Homo sapiens, UniProt P01116+P62937, G13C); experiment: as above; type: biochemical
Sequence of KRAS G13C (P01116 1-169 isoform P01116-2 G13C): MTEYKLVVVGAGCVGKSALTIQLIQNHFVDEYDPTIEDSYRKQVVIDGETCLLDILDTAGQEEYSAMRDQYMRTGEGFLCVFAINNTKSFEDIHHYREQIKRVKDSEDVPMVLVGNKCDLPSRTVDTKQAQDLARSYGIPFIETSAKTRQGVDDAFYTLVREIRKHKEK
Sequence of KRAS G13C (P62937 whole entry): as the sequence (P62937 whole entry) above
How it was run: as §2

[8] = target: KRAS G13D (Homo sapiens, UniProt P01116+P62937, G13D); experiment: as above; type: biochemical
Sequence of KRAS G13D (P01116 1-169 isoform P01116-2 G13D limits assumed): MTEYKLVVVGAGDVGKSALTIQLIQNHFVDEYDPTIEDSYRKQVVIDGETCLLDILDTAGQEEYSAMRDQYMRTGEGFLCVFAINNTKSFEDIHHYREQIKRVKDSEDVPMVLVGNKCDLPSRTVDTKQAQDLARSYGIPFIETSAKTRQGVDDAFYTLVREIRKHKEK
Sequence of KRAS G13D (P62937 whole entry): as the sequence (P62937 whole entry) above
How it was run: as §2

[9] = target: KRAS WT (Homo sapiens, UniProt P01116+P62937); experiment: as above; type: biochemical
Sequence of KRAS WT (P01116 1-169 isoform P01116-2 limits assumed): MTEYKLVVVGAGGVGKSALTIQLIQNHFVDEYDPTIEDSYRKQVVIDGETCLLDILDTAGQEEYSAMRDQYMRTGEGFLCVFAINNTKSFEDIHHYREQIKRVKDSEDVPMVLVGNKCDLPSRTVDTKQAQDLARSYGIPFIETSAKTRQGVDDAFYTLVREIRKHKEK
Sequence of KRAS WT (P62937 whole entry): as the sequence (P62937 whole entry) above
How it was run: as §2

[10] = target: NRAS G12C (Homo sapiens, UniProt P01111+P62937, G12C); experiment: as above; type: biochemical
Sequence of NRAS G12C (P01111 whole entry G12C): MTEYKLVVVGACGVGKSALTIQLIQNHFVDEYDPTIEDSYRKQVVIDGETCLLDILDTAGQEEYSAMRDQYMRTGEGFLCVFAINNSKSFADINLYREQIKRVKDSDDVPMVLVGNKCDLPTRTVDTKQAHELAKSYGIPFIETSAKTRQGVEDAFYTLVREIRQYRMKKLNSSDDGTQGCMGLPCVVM
Sequence of NRAS G12C (P62937 whole entry): as the sequence (P62937 whole entry) above

[11] = target: KRAS Q61H (Homo sapiens, UniProt P01116+P62937, Q61H); experiment: as above; type: biochemical
Sequence of KRAS Q61H (P01116 1-169 isoform P01116-2 Q61H limits assumed): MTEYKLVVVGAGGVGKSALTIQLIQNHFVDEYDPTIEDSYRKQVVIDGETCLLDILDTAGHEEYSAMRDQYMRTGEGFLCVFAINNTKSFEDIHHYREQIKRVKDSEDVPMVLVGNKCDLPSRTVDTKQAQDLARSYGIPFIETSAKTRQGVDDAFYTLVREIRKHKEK
Sequence of KRAS Q61H (P62937 whole entry): as the sequence (P62937 whole entry) above
How it was run: (§3)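 TR-FRET in 25 mM HEPES pH 7.3, 100 mM NaCl, 5 mM MgCl2, 0.1% BSA: 25 μM Cyclophilin A, 12.5 nM His6-Ras-GMPPNP, 50 nM GST-BRAF RBD with compound (10-point 3-fold series from 30 μM), 3 h at 25° C. Anti-His Eu/anti-GST APC added, 1.5 h more; IC50 from decreased FRET ratio versus DMSO.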

[12] = target: NRAS Q61K (Homo sapiens, UniProt P01111+P62937, Q61K); experiment: as above; type: biochemical
Sequence of NRAS Q61K (P01111 whole entry Q61K): as the sequence (P01111 whole entry G12C) above, with C12G, Q61K counted along it
Sequence of NRAS Q61K (P62937 whole entry): as the sequence (P62937 whole entry) above
How it was run: as §3

[13] = target: NRAS Q61R (Homo sapiens, UniProt P01111+P62937, Q61R); experiment: as above; type: biochemical
Sequence of NRAS Q61R (P01111 whole entry Q61R): as the sequence (P01111 whole entry G12C) above, with C12G, Q61R counted along it
Sequence of NRAS Q61R (P62937 whole entry): as the sequence (P62937 whole entry) above
How it was run: as §3

[14] = target: NRAS WT (Homo sapiens, UniProt P01111+P62937); experiment: as above; type: biochemical
Sequence of NRAS WT (P01111 whole entry): as the sequence (P01111 whole entry G12C) above, with C12G counted along it
Sequence of NRAS WT (P62937 whole entry): as the sequence (P62937 whole entry) above
How it was run: as §3

[15] = read-out: KRAS G12C FRET data, IC50
[16] = read-out: KRAS G12D FRET data, IC50
[17] = read-out: KRAS G12S FRET data, IC50
[18] = KRAS G12V, read-out: KRAS G12V FRET data IC50
[19] = read-out: KRAS G13C FRET data, IC50
[20] = KRAS G13D, read-out: KRAS G13D FRET data IC50
[21] = KRAS WT, read-out: KRAS WT FRET data IC50
[22] = NRAS G12C, read-out: NRAS G12C FRET data IC50
[23] = KRAS Q61H, read-out: KRAS Q61H FRET data IC50
[24] = NRAS Q61K, read-out: NRAS Q61K FRET data IC50
[25] = NRAS Q61R, read-out: NRAS Q61R FRET data IC50
[26] = NRAS WT, read-out: NRAS WT FRET data IC50

| SMILES | IC50 [2] | IC50 [3, 15] | IC50 [4, 16] | IC50 [5, 17] | IC50 [6, 18] | IC50 [7, 19] | IC50 [8, 20] | IC50 [9, 21] | IC50 [10, 22] | IC50 [11, 23] | IC50 [12, 24] | IC50 [13, 25] | IC50 [14, 26] | IC50 [1] | further results |
| --- | --- | --- | --- | --- | --- | --- | --- | --- | --- | --- | --- | --- | --- | --- | --- |
| CCn1c(-c2cccnc2[C@H](C)OC)c2c3cc(ccc31)-c1csc(n1)C[C@H](NC(=O)[C@H](C(C)C)N(C)C(=O)[C@H]1CCN(C(=O)CNC)C1)C(=O)N1CCC[C@H](N1)C(=O)OCC(C)(C)C2 [Example A99] | > 10000 nM | 100 to 1000 nM | 100 to 1000 nM | 1000 to 10000 nM | 1000 to 10000 nM | 100 to 1000 nM | 1000 to 10000 nM | 100 to 1000 nM | 100 to 1000 nM | 100 to 1000 nM | 1000 to 10000 nM | 1000 to 10000 nM | 100 to 1000 nM | > 10000 nM |  |
| CCn1c(-c2cccnc2[C@H](C)OC)c2c3cc(ccc31)-c1csc(n1)C[C@H](NC(=O)[C@H](C(C)C)N(C)C(=O)OC)C(=O)N1CCC[C@H](N1)C(=O)OCC(C)(C)C2 [Example A138] | 10 to 100 nM |  |  |  |  |  |  |  |  |  |  |  |  | 10 to 100 nM | IC50 ([3]; KRAS G12C FRET data, IC50): 100 to 1000 nM; IC50 ([4]; KRAS G12D FRET data, IC50): 1000 to 10000 nM; IC50 ([5]; KRAS G12S FRET data, IC50): 1000 to 10000 nM; IC50 ([6]; KRAS G12V FRET data IC50, KRAS G12V): 100 to 1000 nM; IC50 ([7]; KRAS G13C FRET data, IC50): 100 to 1000 nM; IC50 ([8]; KRAS G13D FRET data IC50, KRAS G13D): 1000 to 10000 nM; IC50 ([9]; KRAS WT FRET data IC50, KRAS WT): 100 to 1000 nM; IC50 ([10]; NRAS G12C FRET data IC50, NRAS G12C): 100 to 1000 nM; IC50 ([11]; KRAS Q61H FRET data IC50, KRAS Q61H): 100 to 1000 nM; IC50 ([12]; NRAS Q61K FRET data IC50, NRAS Q61K): 100 to 1000 nM; IC50 ([13]; NRAS Q61R FRET data IC50, NRAS Q61R): 100 to 1000 nM; IC50 ([14]; NRAS WT FRET data IC50, NRAS WT): 100 to 1000 nM |
| CCn1c(-c2cccnc2[C@H](C)OC)c2c3cc(ccc31)-c1nc(cs1)C[C@H](NC(=O)[C@H](C(C)C)N(C)C(C)=O)C(=O)N1CCC[C@H](N1)C(=O)OCC(C)(C)C2 [Example A152] | 100 to 1000 nM | 1000 to 10000 nM | 1000 to 10000 nM | 1000 to 10000 nM | 1000 to 10000 nM | 1000 to 10000 nM | 1000 to 10000 nM | 1000 to 10000 nM | 1000 to 10000 nM | 100 to 1000 nM | 100 to 1000 nM | 1000 to 10000 nM | 1000 to 10000 nM | 100 to 1000 nM |  |
| CCn1c(-c2cccnc2[C@H](C)OC)c2c3cc(ccc31)-c1cc(O)cc(c1)C[C@H](NC(=O)[C@H](C(C)C)N(C)C(=O)[C@H]1CCN(C(=O)OC3COC3)C1)C(=O)N1CCC[C@H](N1)C(=O)OCC(C)(C)C2 [Example A204] | 10 to 100 nM | 10 to 100 nM | 100 to 1000 nM | 10 to 100 nM | 10 to 100 nM | 10 to 100 nM | 10 to 100 nM | 10 to 100 nM | 10 to 100 nM | 10 to 100 nM | 100 to 1000 nM | 100 to 1000 nM | 10 to 100 nM | 10 to 100 nM |  |

Further lines, with some results ahead:

| IC50 [2] | IC50 [3, 15] | IC50 [4, 16] | IC50 [5, 17] | IC50 [6, 18] | IC50 [7, 19] | IC50 [8, 20] | IC50 [9, 21] | IC50 [10, 22] | IC50 [11, 23] | IC50 [12, 24] | IC50 [13, 25] | IC50 [14, 26] | SMILES | IC50 [1] | further results |
| --- | --- | --- | --- | --- | --- | --- | --- | --- | --- | --- | --- | --- | --- | --- | --- |
| 1000 to 10000 nM | 100 to 1000 nM | 100 to 1000 nM | 100 to 1000 nM | 100 to 1000 nM | 10 to 100 nM | 100 to 1000 nM | 100 to 1000 nM | 100 to 1000 nM | 10 to 100 nM | 100 to 1000 nM | 100 to 1000 nM | 100 to 1000 nM | CCn1c(-c2cnccc2COC)c2c3cc(ccc31)-c1cc(O)cc(c1)C[C@H](NC(=O)[C@H](C(C)C)N1COCC1=O)C(=O)N1CCC[C@H](N1)C(=O)OCC(C)(C)C2 [Example A102] | 100 to 1000 nM |  |
| 100 to 1000 nM | 100 to 1000 nM | 100 to 1000 nM | 100 to 1000 nM | 100 to 1000 nM | 100 to 1000 nM | 100 to 1000 nM | 100 to 1000 nM | 100 to 1000 nM | 10 to 100 nM | 100 to 1000 nM | 100 to 1000 nM | 100 to 1000 nM | CCn1c(-c2cccnc2[C@H](C)OC)c2c3cc(ccc31)-c1cc(O)cc(c1)C[C@H](NC(=O)[C@H](C(C)C)N(C)C(=O)OC1CC1)C(=O)N1CCC[C@H](N1)C(=O)OCC(C)(C)C2 [Example A174] | 100 to 1000 nM |  |
